System: male and female Sprague–Dawley rats
Assay: 90-day subchronic oral gavage toxicity study
Format: in vivo, rat
Conditions: male
Description: Subchronic (90-day) studies were performed in accordance with current U.S. EPA’s Toxic Substances Control Act Good Laboratory Practice (GLP) Standards, with the following two general exceptions to the GLP guidelines: Analysis of the dose formulations was conducted according to RTI-approved Standard Operating Procedures, and corn oil (the vehicle) was not characterized (certificate of analysis from the vendor is available in the appendices to the final reports). Male and female Sprague–Dawley rats (five dose levels plus a control, n = 10/sex/dose group, corn oil vehicle dose volume of 3 mL/kg; oral gavage) were used in these studies, and the rats were euthanized on SD 91. The dose levels for PFHI were 0, 12.5, 25, 50, 100, and 200 mg/kg-day. The dose levels for MHFPK were 0, 18.8, 37.5, 75, 150, and 300 mg/kg-day. The dose levels for PFNAC were 0, 0.1, 0.3, 1.0, 3.0, and 10 mg/kg-day for male rats and 0, 0.3, 1.0, 3.0, 10, and 30 mg/kg-day for female rats. For CTFPA, the dose levels were 0, 1.9, 3.8. 7.5, 15, and 30 mg/kg-day for male rats and 0, 6.3, 12.5, 25, 50, and 100 mg/kg-day for female rats. For each PFAS, three batches of dosing solution were prepared. The time between the batch preparation of the dosing solutions ranged between 29 and 39 days. Blood samples were collected from all the rats at termination for serum chemistry, hematology, coagulation, and the analysis of the parent PFAS chemical in the plasma. In vivo data collection and further detail on the endpoints examined postmortem are described below.
The rats were observed twice daily for morbidity and mortality throughout the study period. At least once prior to randomization to test groups and weekly thereafter, the rats were physically examined, and bodyweights were obtained. Feed consumption was quantified weekly starting on SD 1.
Neurotoxicity was evaluated using the functional observational battery (FOB) and measuring locomotor activity (LMA) 2–4 h post dosing on SDs 78–80 and 80–84, respectively. For both the 14- and 90-day studies, an ophthalmologic examination was conducted prior to randomization and near the end of the study, using indirect ophthalmoscopy and slit–lamp biomicroscopy (as needed) after the administration of a mydriatic solution.
Hematology, biochemistry, and coagulation endpoints were measured at the termination of the study. A Siemens Advia 2120i hematology analyzer (Siemens Healthineers, Erlangen, Germany) was used to measure (or calculate) the parameters related to the complete blood count, leukocyte differential count, and reticulocyte count. The hematology parameters are listed and described in Table 2. The prothrombin time […] and activated partial thromboplastin time (APTT) were measured using an Instrumentation Laboratory (Bedford, MA, USA) ACL Elite Pro coagulation analyzer (laser–nephelometric centrifugal method).
At necropsy, the rats were visually examined for external abnormalities and organ weights (absolute and relative to the BW and brain weight), which were recorded (paired organs weighed together). The tissues were preserved in 10% neutral buffered formalin (NBF), except for the ocular tissues, testes, and epididymides, which were preserved in modified Davidson’s fixative and later transferred to 10% NBF. Bone marrow smears were prepared from the femurs, and the slides were air-dried, fixed in methanol, stained, and stored at room temperature for possible future evaluation. The preserved tissues were embedded in paraffin, sectioned, stained with hematoxylin and eosin, and examined by a board-certified veterinary pathologist.
Statistical analysis was performed using Provantis™ Version 10 or greater (Instem LSS, Limited; Stone, Staffordshire, UK). Differences among the treatment groups compared to the control were evaluated using one-way analysis of variance (ANOVA) if the underlying assumptions of a normal distribution (Shapiro–Wilk test) and the homogeneity of the variance (Levene’s test) were satisfied. […]

C=CC(=O)OCC(F)(F)C(F)(F)C(F)(F)C(F)(F)C(F)(F)C(F)(F)C(F)(F)C(F)F [PFNAC, 1H,1H,9H-Perfluorononyl acrylate]
% Diff, Total Food Consumed (1.0 mg/kg-day): 6.25%
A/G (1.0 mg/kg-day): 1.11±0.09 ratio
ABNEUT (1.0 mg/kg-day): 2.627±0.787 K/µL
ABRETi (1.0 mg/kg-day): 186.29±26.35 10^9/L
ABSEOS (1.0 mg/kg-day): 0.097±0.026 K/µL
ALB (1.0 mg/kg-day): 3.99 ± 0.25 g/dL
ALPi (1.0 mg/kg-day): 327.4±48.9 U/L
APTT (1.0 mg/kg-day): 12.70 s
BUN (1.0 mg/kg-day): 20.4 ± 2.6 mg/dL
CHOL (1.0 mg/kg-day): 62.6 ± 7.6 mg/dL
GLOB (1.0 mg/kg-day): 3.59 ± 0.18 g/dL
GLUC (1.0 mg/kg-day): 126.1 ± 10.3 mg/dL
HCT (1.0 mg/kg-day): 45.42±2.38%
HGB (1.0 mg/kg-day): 13.91 ± 0.69 g/dL
Kidney Weight (1.0 mg/kg-day): 3.57 g
Kidney/Body Weight (1.0 mg/kg-day): 0.61%
Kidney/Brain Weight (1.0 mg/kg-day): 164%
Liver Weight (1.0 mg/kg-day): 20.59 g
Liver/Body Weight (1.0 mg/kg-day): 3.48%
Liver/Brain Weight (1.0 mg/kg-day): 949%
MPV (1.0 mg/kg-day): 7.90 ± 0.61 fL
PT (1.0 mg/kg-day): 15.56 s
RBC (1.0 mg/kg-day): 8.519±0.467 M/µL
Total BW change (1.0 mg/kg-day): 314.97 g
Total Food Consumed (1.0 mg/kg-day): 2357 g
% BW Gain (3.0 mg/kg-day): 89.59%
% Diff, % BW Gain (3.0 mg/kg-day): -11.27%
% Diff, Total BW change (3.0 mg/kg-day): -11.64%
% Diff, Total Food Consumed (3.0 mg/kg-day): 7.33%
A/G (3.0 mg/kg-day): 1.18±0.10 ratio
ABNEUT (3.0 mg/kg-day): 2.351±0.464 K/µL
ABRETi (3.0 mg/kg-day): 190.46±33.42 10^9/L
ABSEOS (3.0 mg/kg-day): 0.095±0.043 K/µL
ALB (3.0 mg/kg-day): 4.10 ± 0.25 g/dL
ALPi (3.0 mg/kg-day): 286.4±30.8 U/L
APTT (3.0 mg/kg-day): 12.24 s
BUN (3.0 mg/kg-day): 22.6 ± 3.6 mg/dL
CHOL (3.0 mg/kg-day): 68.5 ± 12.2 mg/dL
GLOB (3.0 mg/kg-day): 3.48 ± 0.13 g/dL
GLUC (3.0 mg/kg-day): 126.8 ± 13.8 mg/dL
HCT (3.0 mg/kg-day): 46.18±2.11%
HGB (3.0 mg/kg-day): 14.09 ± 0.70 g/dL
Kidney Weight (3.0 mg/kg-day): 3.57 g
Kidney/Body Weight (3.0 mg/kg-day): 0.65%
Kidney/Brain Weight (3.0 mg/kg-day): 164%
Liver Weight (3.0 mg/kg-day): 20.96 g
Liver/Body Weight (3.0 mg/kg-day): 3.81%
Liver/Brain Weight (3.0 mg/kg-day): 966%
MPV (3.0 mg/kg-day): 7.79 ± 0.43 fL
PT (3.0 mg/kg-day): 14.98 s
RBC (3.0 mg/kg-day): 8.351±0.354 M/µL
Total BW change (3.0 mg/kg-day): 266.69 g
Total Food Consumed (3.0 mg/kg-day): 2381 g
% BW Gain (10 mg/kg-day): 80.97%
% Diff, % BW Gain (10 mg/kg-day): -19.80%
% Diff, Total BW change (10 mg/kg-day): -20.93%
% Diff, Total Food Consumed (10 mg/kg-day): 2.34%
A/G (10 mg/kg-day): 1.15±0.10 ratio
ABNEUT (10 mg/kg-day): 2.413±0.948 K/µL
ABRETi (10 mg/kg-day): 172.74±32.27 10^9/L
ABSEOS (10 mg/kg-day): 0.101±0.025 K/µL
ALB (10 mg/kg-day): 3.90 ± 0.20 g/dL
ALPi (10 mg/kg-day): 315.8±44.0 U/L
APTT (10 mg/kg-day): 12.57 s
BUN (10 mg/kg-day): 22.4 ± 2.6 mg/dL
CHOL (10 mg/kg-day): 68.0 ± 15.7 mg/dL
GLOB (10 mg/kg-day): 3.39 ± 0.19 g/dL
GLUC (10 mg/kg-day): 122.6 ± 10.8 mg/dL
HCT (10 mg/kg-day): 44.76±2.84%
HGB (10 mg/kg-day): 13.84 ± 0.78 g/dL
Kidney Weight (10 mg/kg-day): 3.53 g
Kidney/Body Weight (10 mg/kg-day): 0.69%
Kidney/Brain Weight (10 mg/kg-day): 170%
Liver Weight (10 mg/kg-day): 21.12 g
Liver/Body Weight (10 mg/kg-day): 4.16%
Liver/Brain Weight (10 mg/kg-day): 1016%
MPV (10 mg/kg-day): 7.66 ± 0.42 fL
PT (10 mg/kg-day): 15.81 s
RBC (10 mg/kg-day): 8.118±0.277 M/µL
Total BW change (10 mg/kg-day): 238.64 g
Total Food Consumed (10 mg/kg-day): 2270 g
